Results reported in article PMC3242765, “Inhibitors of Alphavirus Entry and Replication Identified with a Stable Chikungunya Replicon Cell Line and Virus-Based Assays” (PLoS ONE, 2011).

test system: SFV-Rluc; conditions: not given

SMILES | SFV replication % left (surviving fraction, remaining percentage of SFV replication)
CCC1(c2ccccc2)C(=O)NC(=O)NC1=O [PC-153] | 58.6%
COc1ccc(CN(CCN(C)C)c2ccccn2)cc1.O=C(O)/C=C\C(=O)O [PC-179] | 73.7%
CCCCNc1ccc(C(=O)OCCN(C)C)cc1.Cl [PC-215] | 102.8%

same assay, conditions: Supplementary Table 2, moderately active compounds (25 - 60% remaining), primary screen at 50 µM

SMILES | % left (remaining SFV replication)
COc1cc(-c2oc3cc(O)cc(O)c3c(=O)c2O)ccc1O [NC-056] | 28.9%
C#CCN(C)[C@H](C)Cc1ccccc1.Cl [PC-055] | 57.6%
Cc1ccc(C(C)C)c(O)c1 [NC-101] | 42.0%
CC(=O)Oc1c(C)cc(OCC(O)CNC(C)C)c(C)c1C (stereo not shown) [PC-120] | 46.7%
CCN(CC)CCCC(C)Nc1cc(/C=C/c2ccccc2Cl)nc2cc(Cl)ccc12 (stereo not shown) [NC-066] | 45.8%
CC(Cc1ccc(O)c(O)c1)C(C)Cc1ccc(O)c(O)c1 (stereo not shown) [NC-071] | 35.6%
Cc1cc(=O)oc2c3c4c(cc12)CCCN4CCC3 [NC-015] | 34.6%
O=C(O)c1ccc(O)cc1O [NC-055] | 32.1%

same assay, conditions: primary screening of chemical libraries; compounds tested at 50 µM

SMILES | SFV replication % left
COc1cc(O)c2c(=O)c(OC)c(-c3ccc(OC)c(OC)c3)oc2c1 [NC-081] | 65.0%
COc1cc(-c2oc3cc(O)cc(O)c3c(=O)c2O)ccc1O [NC-056] | 28.9%
CC1=CC(=O)c2ccccc2C1=O [PC-109] | 28.3%
CC(C)NCC(O)c1ccc(O)c(O)c1.CC(C)NCC(O)c1ccc(O)c(O)c1.O.O.O=S(=O)(O)O (stereo not shown) [PC-102] | 110.9%
Cc1cccc(C)c1NC(=O)C1CCCCN1C.Cl (stereo not shown) [PC-112] | 74.9%
CCCCOC(=O)c1ccc(N)cc1 [PC-031] | 76.6%
O=C1Nc2ccc(Cl)cc2C(c2ccccc2Cl)=NC1O (stereo not shown) [PC-106] | 98.2%
Oc1cccc(O)c1 [NC-085] | 83.0%
Oc1cc(O)c2c(c1)O[C@H](c1ccc(O)c(O)c1)[C@H](O)[C@H]2c1c(O)cc(O)c2c1O[C@H](c1ccc(O)c(O)c1)[C@H](O)C2 [NC-075] | 93.7%
CC(C(=O)[O-])c1cccc(Oc2ccccc2)c1.CC(C(=O)[O-])c1cccc(Oc2ccccc2)c1.[Ca+2] (stereo not shown) [PC-080] | 87.6%
COc1c2ccoc2cc2oc(=O)ccc12 [NC-008] | 46.8%
COc1ccc2cc([C@H](C)C(=O)O)ccc2c1 [PC-126] | 92.7%
O=C(O)c1ccccc1O [NC-092] | 69.1%
O=c1ccc2ccc(O)cc2o1 [NC-104] | 93.1%
N[C@@H](Cc1ccc(O)c(O)c1)C(=O)O [PC-007] | 43.6%
C=CCC1(CC=C)C(=O)NC(=O)NC1=O [PC-008] | 45.6%
C#CCN(C)[C@H](C)Cc1ccccc1.Cl [PC-055] | 57.0%
O=C(O)c1c(O)cccc1O [NC-025] | 118.7%
COc1ccc(OC)c(C(O)C(C)N)c1.Cl (stereo not shown) [PC-116] | 98.4%
O=C(/C=C/c1ccc(O)c(O)c1)O[C@H](Cc1ccc(O)c(O)c1)C(=O)O [NC-088] | 120.3%
OCCN1CCN(CCCN2c3ccccc3C=Cc3ccccc32)CC1 [PC-139] | 27.5%
CC(C)(CO)[C@@H](O)C(=O)NCCC(=O)[O-].CC(C)(CO)[C@@H](O)C(=O)NCCC(=O)[O-].[Ca+2] [PC-035] | 67.9%
O=C1CN(/N=C/c2ccc([N+](=O)[O-])o2)C(=O)N1 [PC-131] | 58.9%

SMILES | SFV replication % left
NC(=O)N/N=C/c1ccc([N+](=O)[O-])o1 [PC-132] | 83.7%
Cc1ccc(C(C)C)c(O)c1 [NC-101] | 42.0%
O=C(O)c1ccc(O)c(O)c1 [NC-077] | 21.1%
Oc1cc(O)c2c(c1)O[C@H](c1ccc(O)c(O)c1)[C@H](O)C2 [NC-034] | 97.1%
Cc1c(C)c2c(c(C)c1O)CCC(C)(C(=O)O)O2 (stereo not shown) [NC-103] | 76.9%
CC(=O)Oc1c(C)cc(OCC(O)CNC(C)C)c(C)c1C (stereo not shown) [PC-120] | 46.2%
CC(C)(C)NCC(O)COc1cccc2c1CCC(=O)N2.Cl (stereo not shown) [PC-038] | 67.2%
CCN(CC)C(=O)c1ccc(O)c(OC)c1 [PC-073] | 85.5%
CC(C)Cc1ccc(C(C)C(=O)O)cc1 (stereo not shown) [PC-099] | 92.8%
O=C(O)c1cccc(O)c1O [NC-023] | 93.1%
CN1C(=O)CN=C(c2ccccc2)c2cc(Cl)ccc21 [PC-060] | 73.6%
O=c1oc2c(O)c(O)cc3c(=O)oc4c(O)c(O)cc1c4c23 [NC-033] | 64.9%
CCCCCCCCCCCCOC(=O)c1cc(O)c(O)c(O)c1 [NC-059] | 12.3%
COc1ccc2ccc(=O)oc2c1O [NC-113] | 105.6%
O=C1Nc2ccc(Cl)cc2C(c2ccccc2)=NC1O (stereo not shown) [PC-141] | 79.1%
Cc1c(N(C)CS(=O)(=O)[O-])c(=O)n(-c2ccccc2)n1C.[Na+] [PC-069] | 86.0%
O=c1c(O)c(-c2ccc(O)cc2)oc2cc(O)cc(O)c12 [NC-057] | 2.9%
C[C@H](N)[C@H](O)c1cccc(O)c1.O=C(O)C(O)C(O)C(=O)O [PC-114] | 96.5%
CNC(C)(C)Cc1ccccc1.CNC(C)(C)Cc1ccccc1.O=S(=O)(O)O [PC-111] | 81.8%
CN(C)CC/C=C1/c2ccccc2Sc2ccc(Cl)cc21.Cl [PC-047] | 90.3%
O=C(O[C@@H]1Cc2c(O)cc(O)cc2O[C@@H]1c1ccc(O)c(O)c1)c1cc(O)c(O)c(O)c1 [NC-035] | 94.8%
CCN(CC)CCCC(C)Nc1cc(/C=C/c2ccccc2Cl)nc2cc(Cl)ccc12 (stereo not shown) [NC-066] | 45.8%
O=c1ccc2ccccc2o1 [NC-018] | 68.8%

SMILES | SFV replication % left
C[N+]1(C)[C@@H]2CC[C@H]1C[C@@H](OC(=O)C(CO)c1ccccc1)C2.[Br-] (stereo partly shown) [PC-117] | 70.9%
O=c1cc(-c2ccccc2)oc2c1ccc1ccccc12 [NC-002] | 14.6%
Cl.c1ccc(CN(CC2=NCCN2)c2ccccc2)cc1 [PC-014] | 38.7%
O=c1cc(-c2ccccc2)oc2cc(O)cc(O)c12 [NC-013] | 18.1%
C=CC[C@]1(O)CC[C@H]2[C@@H]3CCC4=CCCC[C@@H]4[C@H]3CC[C@@]21C [PC-009] | 37.2%
Oc1c(I)cc(Cl)c2cccnc12 [PC-049] | 71.9%
O[C@H]1[C@H](O)[C@@H](O)[C@H](O)[C@@H](O)[C@H]1O [PC-100] | 106.0%
CC(CCc1ccccc1)NCC(O)c1ccc(O)c(C(N)=O)c1.Cl (stereo not shown) [PC-105] | 72.5%
C=CCOc1ccccc1OCC(O)CNC(C)C.Cl (stereo not shown) [PC-142] | 92.4%
CCCCCCCCOC(=O)c1cc(O)c(O)c(O)c1 [NC-072] | 134.4%
O=C(O[C@@H]1Cc2c(O)cc(O)cc2O[C@@H]1c1cc(O)c(O)c(O)c1)c1cc(O)c(O)c(O)c1 [NC-037] | 155.3%
COC(=O)c1ccc(O)cc1 [PC-119] | 69.3%
CC(C)NCC(O)c1ccc(O)c(O)c1.Cl (stereo not shown) [PC-103] | 112.5%
CC(Cc1ccc(O)c(O)c1)C(C)Cc1ccc(O)c(O)c1 (stereo not shown) [NC-071] | 35.6%
Cc1cc(=O)oc2c3c4c(cc12)CCCN4CCC3 [NC-015] | 34.6%
O=C(O)Cc1ccccc1O [NC-050] | 7.3%
Oc1ccc(C=Cc2cc(O)cc(O)c2)cc1 [NC-086] | 103.4%
CCNCC(O)c1cccc(O)c1 (stereo not shown) [PC-078] | 116.8%
O=c1cc(-c2ccc(O)c(O)c2)oc2cc(O[C@@H]3O[C@H](CO)[C@@H](O)[C@H](O)[C@H]3O)cc(O)c12 [NC-062] | 17.8%
COc1ccc2c(c1OC)C(=O)O[C@@H]2[C@H]1c2c(cc3c(c2OC)OCO3)CCN1C [PC-137] | 103.5%
Nc1nc2ncc(CNc3ccc(C(=O)N[C@@H](CCC(=O)O)C(=O)O)cc3)nc2c(=O)[nH]1 [PC-085] | 100.0%
CCN(CC)c1ccc2cc(C(=O)c3cccs3)c(=O)oc2c1 [NC-022] | 15.6%
COc1c2occc2c(OC)c2c(=O)cc(C)oc12 [NC-058] | 120.6%

SMILES | SFV replication % left
COc1cc(C(=O)O)cc(OC)c1O [NC-097] | 61.1%
COc1ccc(-c2cc(=O)c3c(O)cc(O)cc3o2)cc1 [NC-001] | 78.1%
NS(=O)(=O)c1cc2c(cc1Cl)N=CNS2(=O)=O [PC-045] | 90.3%
O=C(O)c1ccc(O)c(O)c1 [NC-026] | 124.5%
CC(C)Cc1ccc(CC(=O)O)cc1 [PC-098] | 102.2%
CCOc1ccc2c(c1)C(C)=CC(C)(C)N2 [NC-038] | 96.4%
O=c1ccc2ccc(O)cc2o1 [NC-115] | 78.4%
CCC1(CC)C(=O)NC(=O)NC1=O [PC-020] | 64.7%
O=C1c2c(O)cccc2Cc2cccc(O)c21 [PC-066] | 27.2%
CS(=O)(=O)OCCCCOS(C)(=O)=O [PC-028] | 51.8%
CCC(CN(C)C)(CN(C)C)OC(=O)c1ccccc1.Cl [PC-012] | 43.4%
O=C(O)c1ccc(O)cc1O [NC-055] | 32.1%
CN1CCN=C(c2ccccc2)c2cc(Cl)ccc21 [PC-107] | 87.5%
C[C@H](CCC(=O)O)[C@H]1CC[C@H]2[C@@H]3CC[C@@H]4C[C@H](O)CC[C@]4(C)[C@H]3C[C@H](O)[C@]12C [PC-054] | 86.5%
CN1CCCCC1CCN1c2ccccc2Sc2ccc([S+](C)[O-])cc21 (stereo not shown) [NC-123] | 131.1%
CN1CCCCC1CCN1c2ccccc2Sc2ccc([S+](C)[O-])cc21.O=S(=O)(O)c1ccccc1 (stereo not shown) [PC-113] | 93.8%
Cc1cc(=O)oc2cc(O)ccc12 [NC-065] | 12.0%
CCN(CCO)CCCC(C)Nc1ccnc2cc(Cl)ccc12.O=S(=O)(O)O (stereo not shown) [PC-093] | 128.9%
COc1cc(O)c2c(=O)c(O)c(-c3ccc(O)c(O)c3)oc2c1 [NC-087] | 119.1%
O=C(OC[C@H]1OC(O)[C@@](O)(COC(=O)c2cc(O)c(O)c(O)c2)[C@@H]1O)c1cc(O)c(O)c(O)c1 (stereo partly shown) [NC-045] | 14.7%
